Columns and labels:
[1] = biological target: T1, Tyrosine-protein kinase JAK3 (Homo sapiens, UniProt P52333)
T1 sequence (P52333 whole entry): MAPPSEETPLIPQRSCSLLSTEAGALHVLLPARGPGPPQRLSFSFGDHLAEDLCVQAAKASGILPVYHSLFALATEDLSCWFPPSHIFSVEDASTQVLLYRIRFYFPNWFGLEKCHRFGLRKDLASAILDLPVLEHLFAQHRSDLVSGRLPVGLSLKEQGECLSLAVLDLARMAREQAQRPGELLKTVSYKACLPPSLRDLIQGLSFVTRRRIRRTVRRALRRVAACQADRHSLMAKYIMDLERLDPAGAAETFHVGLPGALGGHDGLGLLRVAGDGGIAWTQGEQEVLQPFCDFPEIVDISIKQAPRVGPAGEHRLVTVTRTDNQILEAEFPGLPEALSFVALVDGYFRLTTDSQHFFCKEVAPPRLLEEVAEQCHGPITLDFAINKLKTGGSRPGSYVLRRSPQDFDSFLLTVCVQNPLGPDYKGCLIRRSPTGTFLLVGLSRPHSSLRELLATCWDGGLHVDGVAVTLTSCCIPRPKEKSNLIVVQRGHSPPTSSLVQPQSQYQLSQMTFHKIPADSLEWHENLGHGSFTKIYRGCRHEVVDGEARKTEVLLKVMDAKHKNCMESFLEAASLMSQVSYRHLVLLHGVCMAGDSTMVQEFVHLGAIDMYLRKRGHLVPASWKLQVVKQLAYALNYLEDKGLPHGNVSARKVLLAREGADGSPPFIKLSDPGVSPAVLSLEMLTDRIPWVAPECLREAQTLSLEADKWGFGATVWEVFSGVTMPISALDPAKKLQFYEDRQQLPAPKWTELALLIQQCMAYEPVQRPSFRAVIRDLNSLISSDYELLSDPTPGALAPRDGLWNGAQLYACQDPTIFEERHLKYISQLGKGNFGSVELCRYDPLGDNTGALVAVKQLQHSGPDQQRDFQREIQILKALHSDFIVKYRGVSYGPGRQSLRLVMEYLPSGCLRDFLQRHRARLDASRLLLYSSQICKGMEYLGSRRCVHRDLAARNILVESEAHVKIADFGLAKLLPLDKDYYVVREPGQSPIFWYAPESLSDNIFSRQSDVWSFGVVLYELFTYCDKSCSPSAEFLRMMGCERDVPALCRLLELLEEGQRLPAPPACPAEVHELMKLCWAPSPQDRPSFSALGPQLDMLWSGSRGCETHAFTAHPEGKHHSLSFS
Description: Inhibition of human JAK3 kinase domain using biotin-Lyn-substrate-2 as substrate incubated for 1 hr by ELISA

[2] = biological target: Inhibitor of nuclear factor kappa-B kinase subunit beta (Homo sapiens, UniProt O14920); assay: Inhibition of IKKB (unknown origin)
Rattus norvegicus [3] = assay: Immunosuppressive activity in Lewis rat transplanted with ACI rat cardiac tissue assessed as reduction in graft rejection by measuring mean survival days at 0.1 mg/kg, po administered for 14 consecutive days co-treated with tacrolimus (reference value: 10 days); type: functional; settings: time 14 day
[4] = Volume of distribution in Sprague-Dawley rat at 1 mg/kg, iv measured up to 24 hrs by LC-MS/MS analysis; type: ADME, organism-based; settings: in vivo
[5] = Half life in Sprague-Dawley rat at 1 mg/kg, po measured up to 24 hrs by LC-MS/MS analysis; type: ADME, organism-based; settings: in vivo
Aurora kinase C = Aurora kinase C (Homo sapiens, UniProt Q9UQB9); assay: Inhibition of AURC (unknown origin)
[6] = biological target: Cyclin-dependent kinase 2 (Homo sapiens, UniProt P24941); assay: Inhibition of CDK2 (unknown origin)
[7] = Clearance in Sprague-Dawley rat at 1 mg/kg, iv measured up to 24 hrs by LC-MS/MS analysis; type: ADME, organism-based; settings: in vivo
[8] = biological target: Mitogen-activated protein kinase kinase kinase 1 (Homo sapiens, UniProt Q13233); assay: Inhibition of MAP3K1 (unknown origin)
[9] = biological target: Serine/threonine-protein kinase Chk1 (Homo sapiens, UniProt O14757); assay: Inhibition of CHK1 (unknown origin)
[10] = AUC (0 to 24 hrs) in Sprague-Dawley rat at 1 mg/kg, iv measured up to 24 hrs by LC-MS/MS analysis; type: ADME, organism-based; set-up: dose 1 mg/kg, time < 24 hrs, route iv; settings: in vivo
[11] = biological target: MAP kinase-activated protein kinase 2 (Homo sapiens, UniProt P49137); assay: Inhibition of MAPKAPK2 (unknown origin)
Angiopoietin-1 receptor = Angiopoietin-1 receptor (Homo sapiens, UniProt Q02763); assay: Inhibition of TIE2 (unknown origin)
[12] = biological target: Tyrosine-protein kinase ZAP-70 (Homo sapiens, UniProt P43403); assay: Inhibition of ZAP70 (unknown origin)
[13] = Cmax in Sprague-Dawley rat at 1 mg/kg, po measured up to 24 hrs by LC-MS/MS analysis; type: ADME, organism-based; set-up: time < 24 hrs, dose 1 mg/kg, route po; settings: in vivo
Rattus norvegicus [14] = assay: Immunosuppressive activity in Lewis rat transplanted with ACI rat cardiac tissue assessed as reduction in graft rejection by measuring mean survival days at 0.5 mg/kg, po administered for 14 consecutive days co-treated with tacrolimus (reference value: 10 days); type: functional; settings: time 14 day
[15] = biological target: Ribosomal protein S6 kinase beta-1 (Homo sapiens, UniProt P23443); assay: Inhibition of p70S6K (unknown origin)
[16] = biological target: RAF proto-oncogene serine/threonine-protein kinase (Homo sapiens, UniProt P04049); assay: Inhibition of RAF1 (unknown origin)
[17] = biological target: Calcium/calmodulin-dependent protein kinase type II subunit alpha (Homo sapiens, UniProt Q9UQM7); assay: Inhibition of CAMK2alpha (unknown origin)
[18] = biological target: Dual specificity mitogen-activated protein kinase kinase 1 (Homo sapiens, UniProt Q02750); assay: Inhibition of MAP2K1 (unknown origin)
[19] = Tmax in Sprague-Dawley rat at 1 mg/kg, po measured up to 24 hrs by LC-MS/MS analysis; type: ADME, organism-based; settings: in vivo
[20] = AUC (0 to 24 hrs) in Sprague-Dawley rat at 1 mg/kg, po measured up to 24 hrs by LC-MS/MS analysis; type: ADME, organism-based; set-up: dose 1 mg/kg, time < 24 hrs, route po; settings: in vivo
Rattus norvegicus [21] = assay: Immunosuppressive activity in Lewis rat transplanted with ACI rat cardiac tissue assessed as reduction in graft rejection by measuring mean survival days at 0.25 mg/kg, po administered for 14 consecutive days co-treated with tacrolimus (reference value: 10 days); type: functional; settings: time 14 day
[22] = biological target: Epidermal growth factor receptor (Homo sapiens, UniProt P00533); assay: Inhibition of EGFR (unknown origin)
[23] = biological target: Tyrosine-protein kinase BTK (Homo sapiens, UniProt Q06187); assay: Inhibition of BTK (unknown origin)
Ephrin type-A receptor 2 = Ephrin type-A receptor 2 (Homo sapiens, UniProt P29317); assay: Inhibition of EphA2 (unknown origin)
Cytochrome P450 3A4 = Cytochrome P450 3A4 (Homo sapiens, UniProt P08684); settings: microsomes, 20 min, 5 µM
[24] = biological target: Glycogen synthase kinase-3 beta (Homo sapiens, UniProt P49841); assay: Inhibition of GSK3beta (unknown origin)
[25] = biological target: Tyrosine-protein kinase ITK/TSK (Homo sapiens, UniProt Q08881); assay: Inhibition of ITK (unknown origin)
[26] = biological target: Mitogen-activated protein kinase 8 (Homo sapiens, UniProt P45983); assay: Inhibition of JNK1 (unknown origin)

Sequence of Dual specificity mitogen-activated protein kinase kinase 1 (Q02750 whole entry): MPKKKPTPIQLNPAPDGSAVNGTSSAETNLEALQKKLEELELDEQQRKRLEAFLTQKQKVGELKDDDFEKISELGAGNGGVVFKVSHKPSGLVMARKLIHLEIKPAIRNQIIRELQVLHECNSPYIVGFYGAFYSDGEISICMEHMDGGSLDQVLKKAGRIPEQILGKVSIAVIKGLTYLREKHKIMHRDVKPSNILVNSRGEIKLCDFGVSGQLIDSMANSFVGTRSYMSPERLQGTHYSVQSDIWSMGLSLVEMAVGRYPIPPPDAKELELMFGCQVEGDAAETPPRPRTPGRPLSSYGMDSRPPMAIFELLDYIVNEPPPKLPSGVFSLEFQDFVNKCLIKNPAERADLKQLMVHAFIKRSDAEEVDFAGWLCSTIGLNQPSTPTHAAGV
Sequence of RAF proto-oncogene serine/threonine-protein kinase (P04049 whole entry): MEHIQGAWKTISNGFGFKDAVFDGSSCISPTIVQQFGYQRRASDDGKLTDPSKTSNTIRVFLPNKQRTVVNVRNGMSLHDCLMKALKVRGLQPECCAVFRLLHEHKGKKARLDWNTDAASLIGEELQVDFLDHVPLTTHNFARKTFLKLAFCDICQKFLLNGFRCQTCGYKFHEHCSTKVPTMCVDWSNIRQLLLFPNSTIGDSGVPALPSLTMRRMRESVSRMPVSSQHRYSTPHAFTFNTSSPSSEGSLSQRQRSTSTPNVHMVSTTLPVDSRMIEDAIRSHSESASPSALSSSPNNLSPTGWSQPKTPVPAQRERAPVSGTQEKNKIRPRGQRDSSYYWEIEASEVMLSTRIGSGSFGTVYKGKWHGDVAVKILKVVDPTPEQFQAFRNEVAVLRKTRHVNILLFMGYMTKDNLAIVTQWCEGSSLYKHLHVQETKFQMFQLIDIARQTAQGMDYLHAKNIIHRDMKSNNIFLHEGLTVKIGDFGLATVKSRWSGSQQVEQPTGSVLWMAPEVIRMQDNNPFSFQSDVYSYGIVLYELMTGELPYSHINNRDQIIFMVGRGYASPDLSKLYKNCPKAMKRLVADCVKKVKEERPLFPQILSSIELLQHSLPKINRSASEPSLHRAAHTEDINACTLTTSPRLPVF
Sequence of Tyrosine-protein kinase ZAP-70 (P43403 whole entry): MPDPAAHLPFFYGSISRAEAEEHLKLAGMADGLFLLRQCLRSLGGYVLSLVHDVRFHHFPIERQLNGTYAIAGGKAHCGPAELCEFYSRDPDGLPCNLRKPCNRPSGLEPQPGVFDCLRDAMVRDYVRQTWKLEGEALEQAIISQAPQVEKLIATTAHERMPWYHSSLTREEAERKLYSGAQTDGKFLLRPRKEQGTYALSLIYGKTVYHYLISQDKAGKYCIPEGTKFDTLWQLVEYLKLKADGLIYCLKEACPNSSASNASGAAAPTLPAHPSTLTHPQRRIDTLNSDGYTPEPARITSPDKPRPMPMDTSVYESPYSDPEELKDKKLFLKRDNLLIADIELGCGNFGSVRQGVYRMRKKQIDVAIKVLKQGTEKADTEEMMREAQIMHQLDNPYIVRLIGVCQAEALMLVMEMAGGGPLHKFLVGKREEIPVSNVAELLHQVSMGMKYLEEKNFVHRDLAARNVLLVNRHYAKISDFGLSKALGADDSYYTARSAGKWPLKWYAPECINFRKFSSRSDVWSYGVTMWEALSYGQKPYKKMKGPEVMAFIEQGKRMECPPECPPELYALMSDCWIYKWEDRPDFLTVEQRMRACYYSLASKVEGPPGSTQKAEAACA
Sequence of Aurora kinase C (Q9UQB9 whole entry): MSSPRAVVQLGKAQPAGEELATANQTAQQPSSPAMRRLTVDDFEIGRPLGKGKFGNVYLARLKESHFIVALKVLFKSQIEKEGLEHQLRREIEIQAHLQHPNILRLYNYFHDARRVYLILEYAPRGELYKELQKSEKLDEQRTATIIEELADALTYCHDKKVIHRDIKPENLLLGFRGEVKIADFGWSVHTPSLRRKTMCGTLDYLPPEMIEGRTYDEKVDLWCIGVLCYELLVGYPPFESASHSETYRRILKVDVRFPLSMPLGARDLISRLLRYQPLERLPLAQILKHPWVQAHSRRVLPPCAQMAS
Sequence of MAP kinase-activated protein kinase 2 (P49137 whole entry): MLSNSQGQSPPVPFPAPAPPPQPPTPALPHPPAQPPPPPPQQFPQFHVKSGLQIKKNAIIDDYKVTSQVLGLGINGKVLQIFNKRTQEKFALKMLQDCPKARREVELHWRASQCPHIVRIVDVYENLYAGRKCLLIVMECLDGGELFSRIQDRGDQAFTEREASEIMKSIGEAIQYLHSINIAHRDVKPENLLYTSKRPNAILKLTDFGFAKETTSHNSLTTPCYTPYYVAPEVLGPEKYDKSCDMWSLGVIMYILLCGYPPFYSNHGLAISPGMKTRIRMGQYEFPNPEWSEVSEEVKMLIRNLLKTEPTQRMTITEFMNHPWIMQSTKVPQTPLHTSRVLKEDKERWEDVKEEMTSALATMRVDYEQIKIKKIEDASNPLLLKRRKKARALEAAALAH
Sequence of Inhibitor of nuclear factor kappa-B kinase subunit beta (O14920 whole entry): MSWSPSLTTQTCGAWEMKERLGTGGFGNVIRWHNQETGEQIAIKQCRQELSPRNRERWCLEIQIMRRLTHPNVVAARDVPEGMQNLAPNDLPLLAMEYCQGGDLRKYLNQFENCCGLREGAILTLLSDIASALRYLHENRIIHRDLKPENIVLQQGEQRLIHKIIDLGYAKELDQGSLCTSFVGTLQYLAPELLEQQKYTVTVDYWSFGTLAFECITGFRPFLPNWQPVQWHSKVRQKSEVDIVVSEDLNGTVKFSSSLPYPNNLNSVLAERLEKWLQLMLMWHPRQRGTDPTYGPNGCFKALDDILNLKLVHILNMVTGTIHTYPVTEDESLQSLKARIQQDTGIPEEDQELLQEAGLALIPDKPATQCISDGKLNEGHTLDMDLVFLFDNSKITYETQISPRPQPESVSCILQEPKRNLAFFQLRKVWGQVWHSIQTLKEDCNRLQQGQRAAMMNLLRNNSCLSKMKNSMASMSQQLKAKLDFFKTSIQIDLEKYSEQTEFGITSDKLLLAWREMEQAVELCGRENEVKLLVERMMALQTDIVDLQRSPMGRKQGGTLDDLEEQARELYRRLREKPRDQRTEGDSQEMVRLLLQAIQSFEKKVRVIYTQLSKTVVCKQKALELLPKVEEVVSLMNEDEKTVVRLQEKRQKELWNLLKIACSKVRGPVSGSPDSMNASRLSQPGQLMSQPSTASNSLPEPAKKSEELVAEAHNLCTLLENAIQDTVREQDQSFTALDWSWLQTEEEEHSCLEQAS
Sequence of Mitogen-activated protein kinase kinase kinase 1 (Q13233 whole entry): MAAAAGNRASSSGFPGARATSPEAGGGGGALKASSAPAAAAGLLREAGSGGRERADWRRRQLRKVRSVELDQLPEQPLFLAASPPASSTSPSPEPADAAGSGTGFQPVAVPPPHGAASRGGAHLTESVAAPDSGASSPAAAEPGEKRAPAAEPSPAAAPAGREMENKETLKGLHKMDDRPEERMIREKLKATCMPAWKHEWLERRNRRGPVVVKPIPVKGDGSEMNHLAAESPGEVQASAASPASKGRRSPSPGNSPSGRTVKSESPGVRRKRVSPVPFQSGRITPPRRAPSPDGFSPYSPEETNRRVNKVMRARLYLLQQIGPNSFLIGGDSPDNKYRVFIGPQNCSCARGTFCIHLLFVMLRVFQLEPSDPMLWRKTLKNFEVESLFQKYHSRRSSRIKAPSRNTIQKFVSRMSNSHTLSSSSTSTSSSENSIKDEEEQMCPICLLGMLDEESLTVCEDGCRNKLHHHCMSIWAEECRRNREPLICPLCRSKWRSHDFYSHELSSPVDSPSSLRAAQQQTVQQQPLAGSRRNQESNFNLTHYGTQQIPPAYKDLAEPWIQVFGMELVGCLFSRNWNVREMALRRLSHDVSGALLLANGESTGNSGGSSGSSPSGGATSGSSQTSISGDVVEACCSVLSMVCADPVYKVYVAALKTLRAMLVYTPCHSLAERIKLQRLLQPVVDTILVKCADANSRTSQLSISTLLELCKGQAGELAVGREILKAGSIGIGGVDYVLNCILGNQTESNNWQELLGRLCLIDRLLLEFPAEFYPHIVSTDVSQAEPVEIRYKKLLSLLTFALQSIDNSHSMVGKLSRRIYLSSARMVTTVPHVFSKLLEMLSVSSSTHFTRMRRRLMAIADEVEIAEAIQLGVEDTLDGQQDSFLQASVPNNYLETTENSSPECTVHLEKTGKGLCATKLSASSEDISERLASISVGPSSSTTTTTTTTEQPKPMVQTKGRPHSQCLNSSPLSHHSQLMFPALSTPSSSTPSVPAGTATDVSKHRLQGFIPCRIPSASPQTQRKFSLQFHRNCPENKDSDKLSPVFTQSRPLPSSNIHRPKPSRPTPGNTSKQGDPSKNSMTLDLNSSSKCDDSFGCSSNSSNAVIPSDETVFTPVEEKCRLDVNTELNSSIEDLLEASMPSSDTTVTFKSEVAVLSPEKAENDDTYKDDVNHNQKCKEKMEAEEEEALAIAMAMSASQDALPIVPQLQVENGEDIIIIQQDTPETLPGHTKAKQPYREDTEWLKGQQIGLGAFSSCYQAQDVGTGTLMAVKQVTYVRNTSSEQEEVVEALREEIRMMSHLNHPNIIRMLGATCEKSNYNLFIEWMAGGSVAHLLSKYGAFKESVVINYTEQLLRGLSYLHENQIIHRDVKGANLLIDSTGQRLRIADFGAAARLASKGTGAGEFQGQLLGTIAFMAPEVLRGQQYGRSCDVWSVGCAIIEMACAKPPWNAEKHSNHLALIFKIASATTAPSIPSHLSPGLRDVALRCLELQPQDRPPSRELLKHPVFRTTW

## C[C@@H]1CCN(C(=O)CC#N)C[C@@H]1n1ccc2cnc3[nH]ccc3c21
[1]
  IC50: 0.00014 µM
[2]
  IC50: > 1 µM
Rattus norvegicus [3]
  MST: 9 days
[4]
  Vd: 1.52 L/kg
[5]
  half-life: 2.58 h
Aurora kinase C
  IC50: > 1 µM
[6]
  IC50: > 1 µM
[7]
  clearance: 18.8 mL/min/kg
[8]
  IC50: > 1 µM
[9]
  IC50: > 1 µM
[10]
  AUC(0-t) at 24 h: 889 ng·h/mL
[11]
  IC50: > 1 µM
Angiopoietin-1 receptor
  IC50: > 1 µM
[12]
  IC50: > 1 µM
[13]
  Cmax: 260 ng/mL
Rattus norvegicus [14]
  MST: 21 days
[15]
  IC50: > 1 µM
[16]
  IC50: > 1 µM
[17]
  IC50: > 1 µM
[18]
  IC50: > 1 µM
[19]
  Tmax: 0.5 h
[20]
  AUC(0-t) at 24 h: 917 ng·h/mL
Rattus norvegicus [21]
  MST: 21 days
[22]
  IC50: > 1 µM
[23]
  IC50: > 1 µM
Ephrin type-A receptor 2
  IC50: > 1 µM
Cytochrome P450 3A4
  TDI: 89%
[24]
  IC50: > 1 µM
[25]
  IC50: > 1 µM
[26]
  IC50: > 1 µM

Source: ChEMBL document CHEMBL5244205, “Discovery of tricyclic dipyrrolopyridine derivatives as novel JAK inhibitors” (Bioorg Med Chem, 2017)
